In ChEMBL document CHEMBL1201862, “PubChem BioAssay data set” (2004):
The source made the active and inactive calls.

How the values were obtained:
[1] = blockade of melanocortin 4 receptor signaling – cell-based, plate reader, cherry pick, counter-screen for LGR2 antagonist project, dose response (AID 743444); assay type: functional;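 note: transfected HEK 293 cells stimulated with alpha-MSH peptide; potency of inhibitors of the alpha-MSH evoked signal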
[2] = Luminescence-based counterscreen assay for KLF5 inhibitors: dose response cell-based high throughput screening assay to identify cytotoxic compounds using the IEC-6 intestinal epithelial cell line. [Related pubchem assays: 1700 (Primary screen.), 1834 (Confirmation screen.), 1858 (Summary AID.), 1905 (Counterscreen.)]; assay type: functional
[3] = target: Luciferin 4-monooxygenase (Photinus pyralis, UniProt P08659); assay: Counter Screen for Luciferase-based Assay Positives. [Related pubchem assays: 620, 618, 411 ]
[4] = luciferase reporter signal suppression in cells – H4 neuroglioma cells, luminescence, dose response (AID 1990); assay type: functional, cell-based
[5] = tested on: HT-1080; assay: HT1080 cell viability loss – fluorescence readout (AID 620); assay type: functional, cell-based; settings: Homo sapiens
[6] = tested on: A-375; assay: MITF: Counter assay: A375 proliferation Measured in Cell-Based System Using Plate Reader - 2084-03_Inhibitor_Dose_DryPowder_Activity. [Related pubchem assays (depositor defined):AID488944]; assay type: functional; settings: Homo sapiens
[7] = alpha-synuclein stem-loop luciferase translation blockers – H4 neuroglioma cells, luminescence, confirmation (AID 1988); assay type: functional, cell-based
[8] = target: Glyceraldehyde-3-phosphate dehydrogenase (Homo sapiens, UniProt P04406)
Sequence of Glyceraldehyde-3-phosphate dehydrogenase (P04406 whole entry): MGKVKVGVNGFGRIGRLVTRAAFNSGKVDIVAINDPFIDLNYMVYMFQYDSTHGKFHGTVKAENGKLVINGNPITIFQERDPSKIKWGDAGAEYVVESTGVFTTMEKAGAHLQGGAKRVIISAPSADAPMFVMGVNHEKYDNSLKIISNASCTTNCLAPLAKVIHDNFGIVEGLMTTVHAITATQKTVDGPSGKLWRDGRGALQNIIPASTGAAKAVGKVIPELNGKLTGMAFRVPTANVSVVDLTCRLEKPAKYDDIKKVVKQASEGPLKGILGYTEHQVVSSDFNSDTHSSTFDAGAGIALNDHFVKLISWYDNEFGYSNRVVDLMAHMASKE

[9] = tested on: BJ; assay: BJ-TERT fibroblast viability loss – cell-based, RAS-independent, luminescence, dose response (AID 1933); assay type: functional; settings: Homo sapiens
[10] = cells; assay type: functional, cell-based
[11] = target: T1, Microphthalmia-associated transcription factor (Homo sapiens, UniProt O75030); assay: reducers of TRPM1 reporter luminescence, concentration series – cell-based, SK-MEL-5, cherry-picked, set 3, MITF inhibitor project, dose response (AID 493073); assay type: functional;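 note: SK-MEL-5 melanoma cells with luciferase driven by the MITF target TRPM1 promoter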
T1 sequence (O75030 whole entry): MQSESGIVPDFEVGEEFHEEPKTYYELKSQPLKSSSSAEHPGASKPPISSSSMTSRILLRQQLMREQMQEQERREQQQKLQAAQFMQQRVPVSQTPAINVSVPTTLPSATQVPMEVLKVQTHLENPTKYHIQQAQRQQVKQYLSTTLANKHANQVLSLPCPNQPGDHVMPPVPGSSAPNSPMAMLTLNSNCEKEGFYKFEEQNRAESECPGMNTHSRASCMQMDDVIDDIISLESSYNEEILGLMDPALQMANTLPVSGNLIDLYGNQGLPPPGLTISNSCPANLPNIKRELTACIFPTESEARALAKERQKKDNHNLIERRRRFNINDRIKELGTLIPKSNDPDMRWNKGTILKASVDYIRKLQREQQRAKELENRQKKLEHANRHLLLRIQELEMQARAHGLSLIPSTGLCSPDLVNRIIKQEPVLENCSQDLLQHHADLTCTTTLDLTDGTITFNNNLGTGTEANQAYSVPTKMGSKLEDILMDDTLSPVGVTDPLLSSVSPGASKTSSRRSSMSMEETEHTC

[12] = luciferase reporter signal reduction – luminescence, H4-C neuroglioblastoma cells, dose response (AID 2458); assay type: functional, cell-based;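 note: H4 neuroglioblastoma cells stably carrying a luciferase reporter gene fusion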
[13] = tested on: BJ; assay: cells; assay type: functional, cell-based; settings: Homo sapiens
[14] = blockers of bursicon-stimulated LGR2 cAMP reporter – cell-based, HEK293, CRE-luciferase reporter, cherry pick, set 2, dose response (AID 743343); assay type: functional;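 note: transfected cells were stimulated with diluted bursicon conditioned medium after compound addition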
[15] = Luminescence Cell-Based Dose Response HTS to Identify Inhibitors of 5'UTR Stem-Loop Driven Prion Protein mRNA Translation in H4 Neuroglioblastoma Cells. [Related pubchem assays: 1827 (Project Summary), 1813 (Primary HTS)]; assay type: functional
[16] = DRD fibroblast viability loss – cell-based, non-viral oncogenic, luminescence, dose response (AID 1934); assay type: functional; settings: Homo sapiens
[17] = tested on: BJ; assay: growth inhibition of engineered Ras-driven BJ cells – cell-based, alamar blue fluorescence, cherrypicked samples, dose response (AID 2631); assay type: functional; settings: Homo sapiens;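 note: confirmatory dose-response assay in RAS-dependent BJ fibroblasts engineered with TERT, LT and ST, with cytotoxicity read by fluorescence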
[18] = A549 cell cytotoxicity, dose response, cytotoxicity control, plate reader, cherry-pick, antagonist series (AID 743412); assay type: functional, cell-based
[19] = viability loss in HEK293 cells – cell-based, plate reader, cherry-picked samples, cytotoxicity control, dose response (AID 743446); assay type: functional
[20] = alpha-synuclein stem-loop translation blockers – luminescence, H4 neuroglioblastoma cells, dose confirmation, confirmation (AID 2454); assay type: functional, cell-based;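 note: H4 neuroglioblastoma cells carrying an alpha-synuclein 5'UTR luciferase reporter; potency for inhibition of the luciferase signal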
[21] = tested on: BJ; assay: BJ-TERT-LT-ST fibroblast viability loss – cell-based, RAS-independent, luminescence, dose response (AID 1935); assay type: functional; settings: Homo sapiens;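 note: BJ fibroblasts immortalized with TERT plus LT and ST oncogenes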
[22] = toxicity toward HepG2 liver cells – cell-based, plate reader, cherry-pick, antagonist series, cytotoxicity control, dose response (AID 743416); assay type: functional
[23] = target: Neuropeptide Y receptor type 1 (Homo sapiens, UniProt P25929); assay type: functional;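 note: HEK293 cells with a CNG channel challenged with NPY then isoproterenol; potency as antagonist that reverses NPY suppression of cAMP signal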
[24] = target: Neuropeptide Y receptor type 2 (Homo sapiens, UniProt P49146); assay type: functional, cell-based;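 note: HEK293 cells expressing the receptor and a CNG channel; stimulus was NPY near EC95 followed by isoproterenol to raise cAMP; antagonist potency measured as restoring cAMP signal that NPY suppresses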
[25] = target: T2, Alkaline phosphatase, tissue-nonspecific isozyme (Homo sapiens, UniProt P05186)
T2 sequence (P05186 whole entry): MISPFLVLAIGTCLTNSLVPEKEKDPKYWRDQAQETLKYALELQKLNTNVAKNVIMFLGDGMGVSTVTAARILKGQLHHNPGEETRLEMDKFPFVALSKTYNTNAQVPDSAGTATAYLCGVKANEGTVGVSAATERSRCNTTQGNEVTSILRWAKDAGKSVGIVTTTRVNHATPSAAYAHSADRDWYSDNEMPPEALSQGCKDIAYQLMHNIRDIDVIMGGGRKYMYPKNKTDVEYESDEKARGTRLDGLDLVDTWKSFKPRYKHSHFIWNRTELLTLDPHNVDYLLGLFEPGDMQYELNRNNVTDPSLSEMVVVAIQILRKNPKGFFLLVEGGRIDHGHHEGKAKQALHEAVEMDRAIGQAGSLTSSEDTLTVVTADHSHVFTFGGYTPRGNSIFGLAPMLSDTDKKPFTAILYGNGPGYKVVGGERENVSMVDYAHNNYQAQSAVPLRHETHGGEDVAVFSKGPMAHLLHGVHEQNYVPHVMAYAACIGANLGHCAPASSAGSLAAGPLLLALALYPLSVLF

[26] = target: T3, Mothers against decapentaplegic homolog 3 (Homo sapiens, UniProt P84022); assay: blockers of Smad3 complex formation in lysate – cell lysate, secondary confirmation, chemiluminescent ELISA, HEK293 lysate, dose response (AID 1058); assay type: functional
T3 sequence (P84022 whole entry): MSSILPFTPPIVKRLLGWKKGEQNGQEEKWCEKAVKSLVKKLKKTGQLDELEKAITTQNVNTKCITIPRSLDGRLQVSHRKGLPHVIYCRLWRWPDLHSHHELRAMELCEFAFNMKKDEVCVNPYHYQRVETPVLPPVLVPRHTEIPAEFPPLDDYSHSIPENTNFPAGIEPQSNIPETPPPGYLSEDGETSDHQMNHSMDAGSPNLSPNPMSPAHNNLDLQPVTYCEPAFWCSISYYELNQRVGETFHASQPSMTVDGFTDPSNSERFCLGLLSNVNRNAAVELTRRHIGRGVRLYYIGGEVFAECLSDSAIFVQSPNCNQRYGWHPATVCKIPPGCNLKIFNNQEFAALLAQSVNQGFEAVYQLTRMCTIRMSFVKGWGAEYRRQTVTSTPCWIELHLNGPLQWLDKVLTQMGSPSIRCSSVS

[27] = target: 26S proteasome non-ATPase regulatory subunit 14 (Homo sapiens, UniProt O00487); assay: inhibition of proteasome subunit RPN11 – biochemical, fluorescence polarization, uHTS hits, confirmation (AID 602368); assay type: functional
Sequence of 26S proteasome non-ATPase regulatory subunit 14 (O00487 whole entry): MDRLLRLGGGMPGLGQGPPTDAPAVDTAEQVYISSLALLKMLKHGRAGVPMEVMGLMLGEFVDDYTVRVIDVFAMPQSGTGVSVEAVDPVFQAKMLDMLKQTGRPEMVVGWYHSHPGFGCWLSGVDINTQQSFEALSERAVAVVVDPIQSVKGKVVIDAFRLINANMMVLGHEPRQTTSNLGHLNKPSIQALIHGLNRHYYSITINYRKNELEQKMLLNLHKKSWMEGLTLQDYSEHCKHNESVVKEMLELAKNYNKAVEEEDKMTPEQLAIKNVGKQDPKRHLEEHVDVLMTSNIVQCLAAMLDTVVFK

[28] = target: Protein-tyrosine kinase 2-beta (Homo sapiens, UniProt Q14289);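 note: potency of inhibitors of PYK2 kinase phosphorylation of poly-GT substrate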
Sequence of Protein-tyrosine kinase 2-beta (Q14289 whole entry): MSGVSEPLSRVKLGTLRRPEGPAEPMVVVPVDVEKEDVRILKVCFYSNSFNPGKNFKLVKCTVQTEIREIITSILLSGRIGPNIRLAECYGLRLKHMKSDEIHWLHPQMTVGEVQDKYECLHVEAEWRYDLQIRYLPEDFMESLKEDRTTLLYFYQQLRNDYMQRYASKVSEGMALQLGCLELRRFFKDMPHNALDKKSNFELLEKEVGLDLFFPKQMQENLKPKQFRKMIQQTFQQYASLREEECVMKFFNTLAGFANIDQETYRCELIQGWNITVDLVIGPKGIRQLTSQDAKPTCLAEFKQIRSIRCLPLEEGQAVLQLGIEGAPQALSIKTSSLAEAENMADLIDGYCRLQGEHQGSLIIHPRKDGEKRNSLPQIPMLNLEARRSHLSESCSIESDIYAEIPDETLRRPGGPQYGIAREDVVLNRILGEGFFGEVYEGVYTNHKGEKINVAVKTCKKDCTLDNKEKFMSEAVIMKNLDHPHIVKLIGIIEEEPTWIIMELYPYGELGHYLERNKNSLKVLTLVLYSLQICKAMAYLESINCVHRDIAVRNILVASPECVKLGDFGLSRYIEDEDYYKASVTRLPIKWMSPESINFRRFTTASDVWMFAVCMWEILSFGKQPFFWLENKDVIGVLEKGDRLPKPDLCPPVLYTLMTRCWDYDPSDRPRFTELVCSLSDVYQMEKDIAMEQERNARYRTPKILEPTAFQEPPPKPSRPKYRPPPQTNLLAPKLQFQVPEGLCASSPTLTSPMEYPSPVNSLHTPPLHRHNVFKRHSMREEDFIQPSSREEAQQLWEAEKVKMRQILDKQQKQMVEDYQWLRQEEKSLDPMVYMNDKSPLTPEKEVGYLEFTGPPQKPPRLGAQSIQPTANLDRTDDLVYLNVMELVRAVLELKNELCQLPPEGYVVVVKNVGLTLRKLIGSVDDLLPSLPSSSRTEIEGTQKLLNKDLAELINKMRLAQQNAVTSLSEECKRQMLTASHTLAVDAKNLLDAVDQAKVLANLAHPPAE

[29] = target: 72 kDa type IV collagenase (Homo sapiens, UniProt P08253); assay: Dose Response validation of uHTS RPN11 inhibitor hits using a MMP-2 Fluorescence assay.; assay type: functional
Sequence of 72 kDa type IV collagenase (P08253 whole entry): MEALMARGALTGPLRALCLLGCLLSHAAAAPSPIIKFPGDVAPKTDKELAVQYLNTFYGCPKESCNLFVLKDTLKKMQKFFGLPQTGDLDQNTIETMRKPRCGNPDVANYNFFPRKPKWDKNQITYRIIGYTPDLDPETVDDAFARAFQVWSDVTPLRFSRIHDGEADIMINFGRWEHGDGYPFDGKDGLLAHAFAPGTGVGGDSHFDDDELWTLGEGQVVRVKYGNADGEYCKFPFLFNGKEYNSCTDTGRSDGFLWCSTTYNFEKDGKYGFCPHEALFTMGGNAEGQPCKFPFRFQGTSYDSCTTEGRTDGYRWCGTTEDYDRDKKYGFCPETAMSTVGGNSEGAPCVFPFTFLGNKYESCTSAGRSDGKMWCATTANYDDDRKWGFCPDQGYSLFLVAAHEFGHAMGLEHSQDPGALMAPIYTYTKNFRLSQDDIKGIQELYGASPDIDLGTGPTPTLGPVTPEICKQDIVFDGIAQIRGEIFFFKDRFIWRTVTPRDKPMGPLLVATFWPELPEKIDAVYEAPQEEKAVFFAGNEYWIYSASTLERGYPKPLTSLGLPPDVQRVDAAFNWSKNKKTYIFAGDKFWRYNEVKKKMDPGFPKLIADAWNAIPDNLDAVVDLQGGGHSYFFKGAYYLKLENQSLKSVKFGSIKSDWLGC

[30] = target: Prothrombin (Bos taurus, UniProt P00735); assay: thrombin protease inhibitors – biochemical, fluorescence polarization, uHTS hits, dose response (AID 602369); assay type: functional
[31] = target: T3, Mothers against decapentaplegic homolog 3; assay: inhibitors of SMAD-driven TGF-beta signaling – dose response (AID 715); assay type: functional
[32] = target: Cytochrome P450 2D6 (Homo sapiens, UniProt P10635); assay: qHTS Assay for Inhibitors and Substrates of Cytochrome P450 2D6. [Related pubchem assays: 410 ]; assay type: ADME; settings: read-out: Potency
[33] = tested on: Streptococcus; assay: GAS UMAA2166 growth inhibition – luminescence, BacTiterGlo, counter-screen for streptokinase expression inhibitor project, dose response (AID 1915); assay type: functional, organism-based;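 note: potency for reduction of bacterial viability or growth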
[34] = tested on: Streptococcus sp. 'group A'; assay: Streptococcus pyogenes SK(-)GAS viability under kanamycin – luminescence, BacTiterGlo, confirmation, counter-screen for streptokinase expression inhibitor project, dose response (AID 1900); assay type: functional, organism-based
[35] = target: T4, Streptokinase A (Streptococcus pyogenes serotype M1, UniProt P10520); assay: viability-normalized secreted streptokinase activity reduction – plasminogen activation absorbance, OD405, dose response (AID 1914); assay type: functional, Streptococcus pyogenes M1 GAS;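 note: secreted streptokinase activity via plasminogen activation per viability signal from cell pellet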
T4 sequence (P10520 whole entry): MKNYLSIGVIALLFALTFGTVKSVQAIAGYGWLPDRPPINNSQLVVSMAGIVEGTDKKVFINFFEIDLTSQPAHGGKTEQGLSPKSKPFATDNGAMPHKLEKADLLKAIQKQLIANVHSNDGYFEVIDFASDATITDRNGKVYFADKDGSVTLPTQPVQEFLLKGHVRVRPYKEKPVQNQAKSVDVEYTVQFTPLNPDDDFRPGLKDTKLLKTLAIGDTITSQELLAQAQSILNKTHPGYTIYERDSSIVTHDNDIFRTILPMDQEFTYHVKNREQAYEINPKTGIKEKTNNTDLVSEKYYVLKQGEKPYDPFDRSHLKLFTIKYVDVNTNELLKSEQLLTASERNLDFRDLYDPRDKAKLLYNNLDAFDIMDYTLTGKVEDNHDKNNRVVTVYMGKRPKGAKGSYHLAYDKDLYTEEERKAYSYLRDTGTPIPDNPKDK

[36] = CCR5-tropic HIV-1 fusion blockers – cell-based, CCR5-tropic Env, dose response (AID 2279); assay type: functional
[37] = target: Endoplasmic reticulum aminopeptidase 1 (Homo sapiens, UniProt Q9NZ08); assay: inhibition of human ERAP1 enzyme activity – biochemical, cherry-pick, set 2, plate reader, dose response (AID 743314)
Sequence of Endoplasmic reticulum aminopeptidase 1 (Q9NZ08 whole entry): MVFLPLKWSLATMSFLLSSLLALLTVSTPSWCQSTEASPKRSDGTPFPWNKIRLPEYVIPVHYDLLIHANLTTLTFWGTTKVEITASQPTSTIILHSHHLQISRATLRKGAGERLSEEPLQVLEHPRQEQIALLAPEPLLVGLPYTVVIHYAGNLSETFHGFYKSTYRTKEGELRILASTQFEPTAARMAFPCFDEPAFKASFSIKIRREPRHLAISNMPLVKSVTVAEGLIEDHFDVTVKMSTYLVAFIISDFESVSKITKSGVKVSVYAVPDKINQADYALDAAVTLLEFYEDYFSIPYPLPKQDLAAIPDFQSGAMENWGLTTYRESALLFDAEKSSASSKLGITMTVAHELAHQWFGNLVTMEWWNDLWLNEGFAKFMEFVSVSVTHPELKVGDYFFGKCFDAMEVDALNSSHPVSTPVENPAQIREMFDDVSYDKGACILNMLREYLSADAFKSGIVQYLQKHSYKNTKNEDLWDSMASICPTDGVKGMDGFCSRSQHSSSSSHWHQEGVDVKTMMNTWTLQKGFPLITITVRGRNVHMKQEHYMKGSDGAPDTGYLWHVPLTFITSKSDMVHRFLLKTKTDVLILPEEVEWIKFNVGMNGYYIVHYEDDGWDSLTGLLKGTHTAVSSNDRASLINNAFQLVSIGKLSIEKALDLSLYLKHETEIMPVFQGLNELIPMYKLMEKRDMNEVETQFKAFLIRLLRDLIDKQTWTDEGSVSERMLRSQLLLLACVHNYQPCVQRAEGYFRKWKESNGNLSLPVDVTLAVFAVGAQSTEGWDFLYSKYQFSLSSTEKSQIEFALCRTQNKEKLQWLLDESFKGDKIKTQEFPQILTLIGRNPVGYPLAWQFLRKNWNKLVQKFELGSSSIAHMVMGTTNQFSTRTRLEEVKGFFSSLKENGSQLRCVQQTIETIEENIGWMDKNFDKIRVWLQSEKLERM

[38] = target: T5, Cytochrome P450 1A2 (Homo sapiens, UniProt P05177);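 note: PubChem cytochrome P450 panel assay, CYP1A2 panel member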
T5 sequence (P05177 whole entry): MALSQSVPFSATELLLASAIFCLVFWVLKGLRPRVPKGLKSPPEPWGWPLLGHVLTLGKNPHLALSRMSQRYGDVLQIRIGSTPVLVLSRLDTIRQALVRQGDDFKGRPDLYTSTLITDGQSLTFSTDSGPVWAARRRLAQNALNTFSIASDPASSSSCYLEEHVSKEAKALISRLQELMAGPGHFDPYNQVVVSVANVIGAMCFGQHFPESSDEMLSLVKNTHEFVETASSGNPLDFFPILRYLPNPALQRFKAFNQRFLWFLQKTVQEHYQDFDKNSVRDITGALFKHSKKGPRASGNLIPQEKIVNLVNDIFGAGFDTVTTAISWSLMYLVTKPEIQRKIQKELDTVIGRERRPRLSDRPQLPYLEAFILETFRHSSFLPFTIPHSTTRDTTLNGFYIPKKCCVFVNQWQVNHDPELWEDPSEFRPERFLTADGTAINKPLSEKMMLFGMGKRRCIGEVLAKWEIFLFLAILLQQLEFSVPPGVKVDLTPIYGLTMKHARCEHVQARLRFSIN

[39] = target: T6, Mannose-6-phosphate isomerase (Homo sapiens, UniProt P34949); assay: MPI enzyme activity inhibition – biochemical, fluorescence intensity, coupled assay, primary screen (AID 1209)
T6 sequence (P34949 whole entry): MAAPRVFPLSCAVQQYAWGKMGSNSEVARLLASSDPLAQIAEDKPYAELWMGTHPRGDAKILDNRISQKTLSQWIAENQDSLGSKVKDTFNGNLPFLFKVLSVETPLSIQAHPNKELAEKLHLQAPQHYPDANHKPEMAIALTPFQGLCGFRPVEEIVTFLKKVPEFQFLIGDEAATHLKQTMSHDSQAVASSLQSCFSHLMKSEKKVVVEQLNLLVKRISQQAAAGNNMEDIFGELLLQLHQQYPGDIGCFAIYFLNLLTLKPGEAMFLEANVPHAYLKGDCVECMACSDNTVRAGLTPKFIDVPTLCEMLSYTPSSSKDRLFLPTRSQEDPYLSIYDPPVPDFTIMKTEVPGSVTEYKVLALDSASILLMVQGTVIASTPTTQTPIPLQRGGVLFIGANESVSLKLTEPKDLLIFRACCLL

[40] = target: T6, Mannose-6-phosphate isomerase; assay: MPI inhibition at elevated mannose 6-phosphate – biochemical, fluorescence intensity, high mannose 6-phosphate, primary screen (AID 1220)
[41] = target: Large T antigen (Simian virus 40, UniProt P03070); assay type: functional, Betapolyomavirus macacae;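 note: Confirmatory-stage PubChem screen for compounds that inhibit SV40 T antigen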
Sequence of Large T antigen (P03070 whole entry): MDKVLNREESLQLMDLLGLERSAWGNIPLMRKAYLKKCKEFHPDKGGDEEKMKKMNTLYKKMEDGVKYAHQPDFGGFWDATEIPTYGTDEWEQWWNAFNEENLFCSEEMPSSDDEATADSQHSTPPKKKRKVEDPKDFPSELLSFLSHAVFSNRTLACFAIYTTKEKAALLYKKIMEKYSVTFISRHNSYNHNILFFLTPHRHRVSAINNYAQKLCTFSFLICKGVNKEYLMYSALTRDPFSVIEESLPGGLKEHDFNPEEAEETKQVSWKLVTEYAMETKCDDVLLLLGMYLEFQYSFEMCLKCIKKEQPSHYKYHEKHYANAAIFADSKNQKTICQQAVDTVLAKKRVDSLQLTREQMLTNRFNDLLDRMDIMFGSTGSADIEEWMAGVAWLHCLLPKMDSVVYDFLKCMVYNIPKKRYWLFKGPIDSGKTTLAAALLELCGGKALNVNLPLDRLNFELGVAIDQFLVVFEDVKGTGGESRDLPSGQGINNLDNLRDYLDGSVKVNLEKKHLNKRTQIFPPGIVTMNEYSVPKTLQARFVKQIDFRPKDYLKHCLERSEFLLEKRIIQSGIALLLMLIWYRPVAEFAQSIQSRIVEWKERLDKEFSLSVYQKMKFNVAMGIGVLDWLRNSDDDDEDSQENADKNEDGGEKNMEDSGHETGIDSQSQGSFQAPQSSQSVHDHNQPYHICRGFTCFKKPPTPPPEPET

[42] = target: Cytochrome P450 3A4 (Homo sapiens, UniProt P08684);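 note: CYP3A4 tested as one member of a cytochrome P450 panel screen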
Sequence of Cytochrome P450 3A4 (P08684 whole entry): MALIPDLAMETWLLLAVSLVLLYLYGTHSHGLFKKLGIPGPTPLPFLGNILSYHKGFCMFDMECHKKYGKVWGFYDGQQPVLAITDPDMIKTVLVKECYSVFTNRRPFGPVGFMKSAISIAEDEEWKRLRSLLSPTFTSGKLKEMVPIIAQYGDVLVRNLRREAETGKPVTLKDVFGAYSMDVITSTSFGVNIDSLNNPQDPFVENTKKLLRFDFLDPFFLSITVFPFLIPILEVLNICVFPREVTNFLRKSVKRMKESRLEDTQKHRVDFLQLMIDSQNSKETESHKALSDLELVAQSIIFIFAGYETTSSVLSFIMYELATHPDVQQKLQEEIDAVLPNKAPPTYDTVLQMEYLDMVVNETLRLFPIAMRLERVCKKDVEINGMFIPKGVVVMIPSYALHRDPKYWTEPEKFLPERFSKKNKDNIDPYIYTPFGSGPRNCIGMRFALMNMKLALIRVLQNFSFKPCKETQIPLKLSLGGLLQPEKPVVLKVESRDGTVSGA

## Cc1ccc(-c2nnc(SCC(=O)Nc3ccccc3F)o2)cc1
[1]
  AC50: 14.7 µM (active)
[2]
  IC50: 34.7 µM (not active)
[3]
  EC50: 9.52 µM (active)
[4]
  EC50: < 0.195 µM (active)
[5]
  EC50: > 50 µM (not active)
[6]
  AC50: 33.7 µM (active)
[7]
  EC50: < 0.1 µM (active)
[8]
  IC50: > 100 µM (not active)
[9]
  EC50: 10.2 µM (active)
[10]
  EC50: 0.839 µM (active)
[11]
  AC50: 2.3 µM (active)
[12]
  EC50: > 12 µM (inconclusive)
[13]
  EC50: 6.59 µM (active)
[14]
  AC50: 7.12 µM (active)
[15]
  EC50: < 0.1 µM (active)
[16]
  EC50: 7.36 µM (inconclusive)
[17]
  EC50: > 133 µM (inactive)
[18]
  AC50: 8.7 µM (active)
[19]
  AC50: 9.16 µM (active)
[20]
  EC50: > 12 µM (inconclusive)
[21]
  EC50: 21.7 µM (active)
[22]
  AC50: 12.4 µM (active)

## COc1ccc(Cn2c(/C=C/c3ccccc3)nc3ccccc32)cc1
[23]
  IC50: 4.02 µM (active)
[24]
  IC50: 5.51 µM (active)

## COc1cc(C(=S)N2CCOCC2)ccc1OC(=O)/C=C/c1ccco1
[25]
  EC50: > 100 µM (not active)

## Oc1cc2c(cc1C(c1ccc3c(c1)OCO3)N1CCCCC1)OCO2 (stereo not drawn)
[26]
  IC50: > 40 µM (not active)

## O=C(NCCCN1CCCCCC1)c1ccc(CS(=O)(=O)Cc2ccccc2F)o1
[27]
  IC50: 7.28 µM (active)
[28]
  IC50: 13.1 µM (not active)
[29]
  IC50: > 100 µM (inactive)
[30]
  IC50: 68.8 µM (active)
[31]
  IC50: 4.1 µM (active)

## COc1ccc(C[C@@H]2NC[C@H](O)[C@H]2OC(C)=O)cc1
[32]
  AC50: 20 µM (inconclusive)

## CCOc1cc(/C=N/Nc2cccc(C(=O)O)c2)ccc1OC(=O)c1ccccc1
[33]
  EC50: 17 µM (active)
[34]
  EC50: 3.53 µM (active)
[35]
  EC50: > 150 µM (not active)
[36]
  IC50: 3.03 µM (active)
[11]
  AC50: 1.38 µM (active)

## O=c1ccc2cc(O)c(O)cc2o1 [ESCULETIN]
[37]
  AC50: 9.72 µM (active)
[38]
  AC50: 15.8 µM (inconclusive)
[39]
  IC50: > 50 µM (not active)
[40]
  IC50: > 50 µM (not active)
[41]
  IC50: 25.9 µM (active)
[42]
  AC50: 12.6 µM (inconclusive)
